According to patent publication US20140323534A1, “USES OF 3'-DESFERRITHIOCIN ANALOGS” (University of Florida Research Foundation, Inc., priority 2011, published 2014):
Read-outs that look alike come from different tables or passages of the source.

Tests used:
[1] = tested on: acetic acid-induced colitis in rats; test: Prevention of acetic acid-induced colitis in a rat model; type: in vivo, Sprague-Dawley rats; conditions: FIG. 1: 20 mg/kg IV 30 minutes before the 4% acetic acid
[2] = Concentration of DFT analogs in rat plasma and cerebrospinal fluid after oral (PO) and subcutaneous (SC) doses; type: in vivo, Sprague-Dawley rats; conditions: rats, monosodium salt; for concentration at 0.5 h / concentration at 1 h / concentration at 2 h / concentration at 4 h / concentration at 8 h: male, Sprague-Dawley, rat; for concentration at 8 h / Concentration in plasma: 8 h
Protocol: The DFT analogs useful in the inventive methods were converted from the free acid form to the monosodium salt form. Water followed by one equivalent of sodium hydroxide was added to the DFT analog as a free acid. The resulting slurry was vortexed or sonicated until the DFT analog went into solution. More water was added, and the solution was vortexed or sonicated again. The formed yellow solution, having a pH about 7, was used as a sample solution in the following examples. It is preferred that a fresh sample solution of the DFT analog is made shortly before the solution is used in an assay.
Adult male Sprague-Dawley rats (450-500 g) were used. The rats were not fasted. A sample solution of a monosodium salt of (S)-3′-(HO)-DADFT-norPE (II-A) or (S)-3′-(HO)-DADFT-PE (III-A) was administered to the rats at an oral or subcutaneous dose of 300 μmol/kg. Concentrations of the DFT analogs in the plasma and cerebrospinal fluid of the rats were measured at 0.5 hour, 1 hour, 2 hours, 4 hours, and 8 hours post administration.

LogPapp of DFT analogs = type: physicochemical
[3] = cerebrospinal fluid, 300 μmol/kg SC, read-out: Concentration in cerebrospinal fluid
[4] = plasma, 300 μmol/kg SC, read-out: Concentration in plasma
[5] = cerebrospinal fluid, 300 μmol/kg PO, read-out: Concentration in cerebrospinal fluid
[6] = plasma, 300 μmol/kg PO, read-out: Concentration in plasma

CC(=O)N(O)CCCCCNC(=O)CCC(=O)N(O)CCCCCNC(=O)CCC(=O)N(O)CCCCCN [DFO, desferrioxamine]
Effect on acetic acid-induced colitis [1]: prevent acetic acid-induced colitis

COCCOCCOc1cccc(C2=N[C@@](C)(C(=O)O)CS2)c1O [II-A]
concentration at 0.5 h ([2]; cerebrospinal fluid, 300 μmol/kg SC, 0.5 h, read-out: Concentration in cerebrospinal fluid): 0 µM
concentration at 1 h [2, 3]: 0 µM
concentration at 2 h [2, 3]: 0 µM
concentration at 4 h [2, 3]: 0 µM
concentration at 8 h ([2]; cerebrospinal fluid, 300 μmol/kg SC): 0 nM
concentration at 0.5 h ([2]; plasma, 300 μmol/kg SC, 0.5 h, read-out: Concentration in plasma): 77 ± 10 µM
concentration at 1 h [2, 4]: 66 ± 5 µM
concentration at 2 h [2, 4]: 44 ± 2 µM
concentration at 4 h [2, 4]: 7 ± 1 µM
Concentration in plasma ([2]; 300 μmol/kg SC): trace
LogPapp (LogPapp of DFT analogs): −0.93

COCCOCCOCCOc1cccc(C2=N[C@@](C)(C(=O)O)CS2)c1O [III-A]
concentration at 1 h [2, 5]: 0 µM
concentration at 2 h [2, 5]: 0 µM
concentration at 4 h [2, 5]: 0 µM
concentration at 8 h ([2]; cerebrospinal fluid, 300 μmol/kg PO): 0 nM
concentration at 0.5 h ([2]; plasma, 300 μmol/kg PO, 0.5 h, read-out: Concentration in plasma): 62 ± 24 µM
concentration at 1 h [2, 6]: 46 ± 3 µM
concentration at 2 h [2, 6]: 24 ± 5 µM
concentration at 4 h [2, 6]: 13 ± 2 µM
Concentration in cerebrospinal fluid ([2]; 300 μmol/kg PO, 0.5 h): trace
Concentration in plasma ([2]; 300 μmol/kg PO): trace
LogPapp (LogPapp of DFT analogs): −1.22
